The test system of one assay is STHdh^Q111/111 cells. In words: Toxicity assay: rescue from tunicamycin (ER stress)-induced apoptosis, FACS with propidium iodide (sub-G0/G1). The class given is cell-based, murine. The following applies: for rescue from ER stress-induced apoptosis: 0–100 μM, 48 h Tun exposure (Fig. 1C). As to the method:
(§1) STHdh^Q111/111 cells (used before[13]) or PERK+/+ or PERK−/− MEFs (kindly provided by David Ron, Univ. Cambridge) were incubated with Tun (10 μg/ml) for 48 h, which results in ER stress-induced cell death. Cells under the same conditions were incubated for the same times, together with Tun, with increasing concentrations of the different PERK modulators (0–120 μM) and the percent of apoptotic cells was measured by FACS cell cycle progression using propidium iodide (PI), considering the fraction beneath G0/G1. The relative apoptosis rate was calculated to be able to compare between compounds and experiments, where for each concentration curve the percent of apoptotic cells was considered 100 at concentration 0 of the PERK modulator, with only Tun. The graphs show the average relative apoptosis rate of at least 3 independent experiments for each compound.
(§2) Cells were washed with PBS and fixed with cold methanol. Before FACS analysis cells were washed with PBS, followed by addition of propidium iodide (PI) solution (10 μg/ml) and analysis by flow cytometry. Cells in sub-G0/G1 were counted as apoptotic/ dead.

For the next assay, the target named is T1, PERK (EIF2AK3) (Homo sapiens, UniProt Q9NZJ5).
T1 construct: GST; purchased Life technologies, Carlsbad, CA; host or cells: insect cells
T1 sequence (Q9NZJ5 536-1116): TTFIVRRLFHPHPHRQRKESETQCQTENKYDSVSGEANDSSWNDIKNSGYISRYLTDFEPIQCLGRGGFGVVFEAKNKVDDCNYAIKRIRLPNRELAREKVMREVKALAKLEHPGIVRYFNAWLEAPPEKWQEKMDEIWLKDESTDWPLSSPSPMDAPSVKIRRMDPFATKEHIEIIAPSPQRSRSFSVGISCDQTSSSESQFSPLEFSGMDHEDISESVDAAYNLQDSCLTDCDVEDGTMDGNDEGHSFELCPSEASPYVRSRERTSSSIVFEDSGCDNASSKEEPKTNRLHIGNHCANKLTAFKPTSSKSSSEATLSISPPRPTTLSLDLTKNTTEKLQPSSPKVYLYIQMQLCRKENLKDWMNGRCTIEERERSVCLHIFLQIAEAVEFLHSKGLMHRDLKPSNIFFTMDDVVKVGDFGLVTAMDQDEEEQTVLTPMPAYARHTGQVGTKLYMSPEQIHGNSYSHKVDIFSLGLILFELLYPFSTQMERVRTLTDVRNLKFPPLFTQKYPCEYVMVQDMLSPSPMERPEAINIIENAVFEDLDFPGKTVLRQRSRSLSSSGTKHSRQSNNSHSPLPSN
In words: In vitro HotSpot kinase assay on isolated PERK. To be noted: HotSpot Kinase Assay. Format: biochemical. Here is the method: In vitro kinase assays with purified components and full kinase panel analysis was done at Reaction Biology Corp. (Malvern, PA, USA) using the HotSpot Kinase Assay. Reactions were performed for 20 min at room temp. using ^33P-ATP (Specific activity 10 μCi/μl) with 1 μM total ATP, 20 μM substrate and kinases in the nanomolar range in 20 mM Hepes (pH 7.5), 10 mM MgCl2, 1 mM EGTA, 0.02% Brij35, 0.02 mg/ml BSA, 0.1 mM Na3VO4, 2 mM DTT, 1% DMSO and other required factors depending on the assayed kinase.

In assay [1] the target is panel of 391 kinases (Homo sapiens, UniProt P37173). In words: biochemical. Format: biochemical. To be noted: TGFBR2; ATP 1 µM; read-out: Control Compound IC50.
Assay [2] addresses panel of 391 kinases (Homo sapiens, UniProt Q9BQI3). In words: biochemical. Format: biochemical. To be noted: kinase EIF2AK1; 10-dose IC50 mode; 1 µM ATP; read-out: Control Compound IC50.
Another assay relates to WT MEF cells. In words: Rescue from tunicamycin-induced apoptosis in WT MEFs. Format: cell-based. To be noted: WT MEFs treated with Tun; read-out: IC50 for inhibition of apoptosis. As to the method: as §1, §2
In a further assay the test system is PERK−/− MEF cells. Description: Rescue from tunicamycin-induced apoptosis in PERK−/− MEFs. Format: cell-based. The following applies: Tun. Here is the method: as §1, §2
The next assay relates to PERK-P. In words: PERK phosphorylation shift by immunoblot in MEF cells. Format: cell-based. The following applies: 3 hours, Thap 2 μg/ml.
Assay [3] concerns the target panel of 391 kinases (Homo sapiens, UniProt Q9Y572). Description: biochemical. Format: biochemical. To be noted: RIPK3; ATP 1 µM; read-out: Control Compound IC50.
Assay [4] addresses panel of 391 kinases (Homo sapiens, UniProt P68400). Description: biochemical. Format: biochemical. To be noted: CK2a; ATP 1 µM; read-out: Control Compound IC50.
Assay [5] concerns the target panel of 391 kinases (Homo sapiens, UniProt Q15118). Description: biochemical. To be noted: kinase PDK1/PDHK1; 10-dose IC50 mode; 1 µM ATP; read-out: Control Compound IC50. The class given is biochemical.
Assay [6] deals with panel of 391 kinases (Homo sapiens, UniProt Q15120). In words: biochemical. Format: biochemical. The following applies: kinase PDK3/PDHK3; 10-dose IC50 mode; 1 µM ATP; read-out: Control Compound IC50.
Assay [7] addresses T2, panel of 391 kinases (Homo sapiens, UniProt P10398).
T2 sequence (P10398 1-606): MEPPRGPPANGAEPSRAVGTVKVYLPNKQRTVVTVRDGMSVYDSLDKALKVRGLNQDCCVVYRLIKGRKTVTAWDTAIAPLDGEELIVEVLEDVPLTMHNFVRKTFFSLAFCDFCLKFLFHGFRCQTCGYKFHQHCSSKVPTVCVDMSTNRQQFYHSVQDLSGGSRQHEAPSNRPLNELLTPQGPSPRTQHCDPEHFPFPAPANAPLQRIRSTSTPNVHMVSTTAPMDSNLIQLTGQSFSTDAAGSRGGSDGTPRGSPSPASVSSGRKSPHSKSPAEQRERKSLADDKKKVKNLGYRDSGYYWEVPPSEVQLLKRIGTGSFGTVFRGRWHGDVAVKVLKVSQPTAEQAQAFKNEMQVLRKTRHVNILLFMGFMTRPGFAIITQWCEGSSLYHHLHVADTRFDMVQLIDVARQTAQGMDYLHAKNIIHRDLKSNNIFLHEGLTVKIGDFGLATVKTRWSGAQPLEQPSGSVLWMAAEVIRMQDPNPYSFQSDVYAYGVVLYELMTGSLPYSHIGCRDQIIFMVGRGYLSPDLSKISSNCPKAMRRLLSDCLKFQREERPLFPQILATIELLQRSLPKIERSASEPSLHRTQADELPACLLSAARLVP
Description: biochemical. The class given is biochemical. To be noted: ARAF; ATP 1 µM; read-out: Control Compound IC50.

Assay [8] deals with T3, panel of 391 kinases (Homo sapiens, UniProt Q9NR20).
T3 sequence (Q9NR20 1-520): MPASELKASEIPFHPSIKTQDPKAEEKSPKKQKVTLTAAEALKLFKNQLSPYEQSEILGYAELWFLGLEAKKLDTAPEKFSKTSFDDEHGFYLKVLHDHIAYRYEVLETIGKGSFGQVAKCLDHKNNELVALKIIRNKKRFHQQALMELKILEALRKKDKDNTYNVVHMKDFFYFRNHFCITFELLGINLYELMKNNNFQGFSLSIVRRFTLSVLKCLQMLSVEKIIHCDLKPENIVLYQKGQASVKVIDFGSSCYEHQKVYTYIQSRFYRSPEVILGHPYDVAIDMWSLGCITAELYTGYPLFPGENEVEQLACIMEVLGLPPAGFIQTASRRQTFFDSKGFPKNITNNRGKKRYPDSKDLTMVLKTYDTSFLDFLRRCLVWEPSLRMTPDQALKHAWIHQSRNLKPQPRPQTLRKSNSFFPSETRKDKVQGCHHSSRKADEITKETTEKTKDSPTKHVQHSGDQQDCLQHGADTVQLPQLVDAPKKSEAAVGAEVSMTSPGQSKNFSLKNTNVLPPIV
Description: biochemical. The following applies: DYRK4; ATP 1 µM; read-out: Control Compound IC50. Format: biochemical.

In assay [9] the target is panel of 391 kinases (Homo sapiens, UniProt Q9NYL2). Description: biochemical. The following applies: ZAK/MLTK; ATP 1 µM; read-out: Control Compound IC50. Format: biochemical.
Assay [10] has as its target panel of 391 kinases (Homo sapiens, UniProt Q15119). Description: biochemical. Format: biochemical. The following applies: kinase PDK2/PDHK2; 10-dose IC50 mode; 1 µM ATP; read-out: Control Compound IC50.
Assay [11] concerns the target panel of 391 kinases (Homo sapiens, UniProt Q16654). Description: biochemical. Format: biochemical. The following applies: kinase PDK4/PDKH4; 10-dose IC50 mode; 1 µM ATP; read-out: Control Compound IC50.
For assay [12], the target named is panel of 391 kinases (Homo sapiens, UniProt P27361). Description: biochemical. Format: biochemical. To be noted: ERK1; ATP 1 µM; read-out: Control Compound IC50.
Assay [13] concerns the target panel of 391 kinases (Homo sapiens, UniProt Q9BYP7). Description: biochemical. The class given is biochemical. The following applies: WNK3; ATP 1 µM; read-out: Control Compound IC50.
Assay [14] deals with panel of 391 kinases (Homo sapiens, UniProt Q8TDX7). Description: biochemical. The class given is biochemical. To be noted: NEK7; ATP 1 µM; read-out: Control Compound IC50.
Assay [15] deals with panel of 391 kinases (Homo sapiens, UniProt Q9HC98). Description: biochemical. Format: biochemical. To be noted: NEK6; ATP 1 µM; read-out: Control Compound IC50.
In assay [16] the target is panel of 391 kinases (Homo sapiens, UniProt Q96QT4). In words: biochemical. To be noted: kinase TRPM7/CHAK1; 10-dose IC50 mode; 1 µM ATP; read-out: Control Compound IC50. Format: biochemical.

Molecules are shown by their SMILES.

For `COc1cc(/C=N\N(C)c2nc(-c3ccccc3)cc(-c3ccc(Br)cc3)n2)ccc1O` [A4, reference compound], the reduction of apoptosis entry in the assay on STHdh^Q111/111 cells (5 μM, 48 h Tun exposure) is “no significant effect”. Besides, the “effect on activity of isolated PERK” value on PERK (EIF2AK3) was “activated PERK (EIF2AK3) in the nanomolar range, although to a small extent”. In the case of `c1ccc2c(-c3cnn4cc(-c5ccc(N6CCNCC6)cc5)cnc34)ccnc2c1` [LDN193189], on panel of 391 kinases [1], the IC50 was determined as 89.6 nM. For `Cn1cc(-c2ccc3c(c2)CCN3C(=O)Cc2cccc(C(F)(F)F)c2)c2c(N)ncnc21` [GSK-2606414], on panel of 391 kinases [2], the concentration for half-maximal inhibition (IC50) was 166 nM. Regarding `CCN(CC)CCC(=O)N1N=C(c2c(-c3ccccc3)c3cc(Br)ccc3[nH]c2=O)CC1c1ccc(Br)cc1` (stereo not drawn) [CCT020312, reference compound], the concentration for half-maximal inhibition (IC50) in the assay on WT MEF cells is 11.1 µM; in the assay on STHdh^Q111/111 cells (STHdh^Q111/111 cells treated with Tun, read-out: IC50 for inhibition of apoptosis) it was 32.4 µM. For the same molecule, in the assay with STHdh^Q111/111 cells (below 10 μM, Tun), the “protection from apoptosis at lower concentrations” value is reported as “failed to be protective”. Further, the “protection from ER stress-induced cell death” value in the assay on PERK−/− MEF cells was “failed to protect”. With `Cn1cc(-c2ccc3c(c2)CCN3C(=O)Cc2cccc(C(F)(F)F)c2)c2c(N)ncnc21` [GSK606414, 7-methyl-5-(1-{[3-(trifluoromethyl)phenyl]acetyl}-2,3-dihydro-1H-indol-5-yl)-7H-p yrrolo[2,3-d]pyrimidin-4-amine], the “effect on activity of isolated PERK” value on PERK (EIF2AK3) was “clear inhibitory effect”. For the molecule `C/C=C(/C)C(=O)O[C@H]1C(C)=C2[C@H]([C@@H]1OC(=O)CCCCCCC)[C@@](C)(OC(C)=O)C[C@H](OC(=O)CCC)[C@@]1(O)[C@H]2OC(=O)[C@@]1(C)O` [Thap, thapsigargin, reference compound], the “PERK migration shift (PERK-P)” value with PERK-P is reported as “shift of PERK consistent with its phosphorylation”. As to `O=C1Nc2ccc(I)cc2/C1=C/c1cc(Br)c(O)c(Br)c1` [GW5074], the IC50 at panel of 391 kinases [3] is 1140 nM; at panel of 391 kinases [4] it was 35 nM; on panel of 391 kinases [5], 10.3 µM; on panel of 391 kinases [6] it was 1890 nM; on panel of 391 kinases [7], 29.3 nM; on panel of 391 kinases [8] it was 1140 nM. For the same molecule, the IC50 on panel of 391 kinases [9] was 1340 nM; on panel of 391 kinases [10], 5.52 µM; on panel of 391 kinases [11] it was 1680 nM. As for `O=C(Nc1ccc2[nH]nc(-c3ccncc3)c2c1)[C@@H]1CCN(CC(=O)N2CCN(c3ccc(-c4ncccn4)cc3)CC2)C1` [SCH772984], the IC50 on panel of 391 kinases [12] stood at 12.6 nM. Consider `COc1cc(/C=N\N(C)c2nc(-c3ccccc3)cc(-c3ccccc3)n2)cc(OC)c1` [MK26], for which the “rescue from ER stress-induced apoptosis” value with STHdh^Q111/111 cells is “inactive”. Consider `O=C1NC(=O)c2c1c(-c1ccccc1Cl)cc1[nH]c3ccc(O)cc3c21` [Wee-1 Inhibitor], for which, on panel of 391 kinases [13], the IC50 was 1910 nM. With `O=C1Nc2ccc3ncsc3c2/C1=C/c1cnc[nH]1` [PKR Inhibitor], the figures for the IC50 on panel of 391 kinases [14] and on panel of 391 kinases [15] were 14.8 µM and 5.69 µM, respectively. On to `CCCCCCCCCCCCCCCCn1cc[n+](Cc2ccccc2)c1C` [NH125], for which the IC50 on panel of 391 kinases [16] was determined as 11 µM.

As to `COc1cc(/C=N\N(C)c2nc(-c3ccccc3)cc(-c3ccccc3)n2)cc(OC)c1O` [MK-30], the “rescue from ER stress-induced apoptosis” value in the assay on STHdh^Q111/111 cells was “inactive”. With `COc1ccc(/C=N\N(C)c2nc(-c3ccccc3)cc(-c3ccccc3)n2)cc1O` [MK-29], the “rescue from ER stress-induced apoptosis” value in the assay on STHdh^Q111/111 cells is “inactive”.

These data come from paper PMC7181660, “A novel specific PERK activator reduces toxicity and extends survival in Huntington's disease models” (Scientific Reports, 2020).
